Results reported in patent US9181223B2, “2-aminopyrimidin-6-ones and analogs exhibiting anti-cancer and anti-proliferative activities” (Deciphera Pharmaceuticals, LLC, priority 2013, dated 2015).

What was measured:
[1] = target: T1, unphosphorylated c-KIT kinase (uKIT, Seq. ID no. 2) (Homo sapiens, UniProt P10721); assay: uKit kinase assay (ADP production coupled to pyruvate kinase/lactate dehydrogenase); format: biochemical
T1 construct: uKit with N-terminal GST fusion used for screening
Protocol: In this assay, the oxidation of NADH (thus the decrease at A340 nm) was continuously monitored spectrophometrically. […] The inhibition reaction was started by mixing serial diluted test compound with the above reaction mixture. The absorption at 340 nm was monitored continuously for 4 hours at 30° C. on Synergy 2 plate reader (BioTech).

[2] = target: T2, unphosphorylated PDGFRβ kinase (uPDGFRβ, Seq. ID No. 3) (Homo sapiens, UniProt P09619); assay: uPDGFRβ kinase assay (ADP production coupled to pyruvate kinase/lactate dehydrogenase); format: biochemical; settings: enzymatic assay, ATP 500 μM
T2 construct: purchased DeCode
Protocol: Unphosphorylated […]β) Kinase (Seq. ID No. 3) Assay Activity of unphosphorylated PDGFRβ kinase ([…] No. 3) was determined by following the production of ADP from the kinase reaction with ATP and poly E4Y as substrates through coupling with the pyruvate kinase/lactate dehydrogenase system (e.g., Schindler et al. Science (2000) 289: 1938-1942). In this assay, the oxidation of NADH (thus the decrease at A340 nm) was continuously monitored spectrophometrically. The reaction mixture (100 μL) contained PDGFRβ (DeCode, 15.7 nM), polyE4Y (2.5 mg/mL), MgCl2 (10 mM), pyruvate kinase (4 units), lactate dehydrogenase (0.7 units), phosphoenol pyruvate (1 mM) and NADH (0.28 mM) and ATP (500 μM) in a 90 mM Tris buffer containing 0.2% octyl-glucoside and 1% DMSO, at pH 7.5. The inhibition reaction was started by mixing serial diluted test compound with the above reaction mixture. The absorption at 340 nm was monitored continuously for 4 h at 30° C. on a Polarstar Optima or Synergy 2 plate reader. The reaction rate was calculated using the 1.5 to 2.5 h time frame. Percent inhibition was obtained by comparison of reaction rate with that of a control (i.e. with no test compound). IC50 values were calculated from a series of percent inhibition values determined at a range of inhibitor concentrations using software routines as implemented in the GraphPad Prism software package.

osteoclast precursors = assay: Osteoclast tartrate-resistant acid phosphatase assay; format: cell-based; settings: tartrate-resistant acid phosphatase activity, RANKL and M-CSF, 7-14 days
Protocol: Osteoclast Tartrate-Resistant Acid Phosphatase Assay
A serial dilution of test compound was dispensed into a 384-well black clear bottom plate (Nalge Nunc International, Rochester, N.Y.). Compound was diluted by the addition of DMEM media supplemented with 10% characterized fetal bovine serum (Invitrogen, Carlsbad, Calif.). Diluted compound was transferred to a 384-well black clear bottom plate. Two-thousand five hundred osteoclast precursors (Lonza, Walkersville, Md.) were added per well in growth media containing Receptor Activator of Nuclear Factor Kappa-beta ligand (RANKL) and M-CSF (R&D Systems, Minneapolis, Minn.). Plates were incubated for 7-14 days at 37 degrees Celsius, 5% CO2, and 95% humidity to allow differentiation of osteoclast precursors. At the end of the incubation period, 10 μL of supernatant from each well was transferred to a clear 384-well plate. Tartrate-resistant acid phosphatase activity in the supernatant samples was determined using an acid phosphatase assay kit (Sigma, St. Louis, Mo.). Absorbance was measured at 550 nm using a plate reader. Data was analyzed using Prism software (Graphpad, San Diego, Calif.) to calculate IC50 values.

PC-3 M-luc cells = assay: PC-3 peritibial implant model of cancer bone metastasis; format: in vivo, mouse; settings: oral dose of 30 mg/kg twice daily for 39 days; scale 0-4; vehicle-treated animals 4
From the text: PC-3 Peritibial Implant Model of Cancer Bone Metastasis To evaluate in vivo anti-cancer activity of compounds of formula I, the PC-3 M-luc peritibial injection model of bone invasiveness model was employed. Briefly, PC-3 M-luc cells were obtained from Xenogen Corporation (Caliper Life Sciences) and expanded using MEM media modified with L-Glutamine (Cell Gro® #10-045-CV) supplemented with 10% fetal bovine serum, 1% penicillin-streptomycin-glutamine, 1% non-essential amino acids, and 1% MEM vitamins in 5% CO2 atmosphere at 37° C. Six to 7 week old male nude mice (Crl:NU-Foxnlnu) were obtained from Charles River Laboratories. Test mice were implanted peritibially on Day 0 with 1×10^6 cells/mouse (0.1 ml) using an insulin syringe with a fixed 28-gauge needle. The needle was inserted at the ankle between the tibia and fibula until the bevel of the needle reached approximately half way between the knee and ankle. Treatments began on Day 0. Animals were dosed by oral gavage twice daily for the study duration. All procedures carried out in this experiment were conducted in compliance with all the laws, regulations and guidelines of the National Institutes of Health (NIH). […]

T2 sequence (P09619 557-1106): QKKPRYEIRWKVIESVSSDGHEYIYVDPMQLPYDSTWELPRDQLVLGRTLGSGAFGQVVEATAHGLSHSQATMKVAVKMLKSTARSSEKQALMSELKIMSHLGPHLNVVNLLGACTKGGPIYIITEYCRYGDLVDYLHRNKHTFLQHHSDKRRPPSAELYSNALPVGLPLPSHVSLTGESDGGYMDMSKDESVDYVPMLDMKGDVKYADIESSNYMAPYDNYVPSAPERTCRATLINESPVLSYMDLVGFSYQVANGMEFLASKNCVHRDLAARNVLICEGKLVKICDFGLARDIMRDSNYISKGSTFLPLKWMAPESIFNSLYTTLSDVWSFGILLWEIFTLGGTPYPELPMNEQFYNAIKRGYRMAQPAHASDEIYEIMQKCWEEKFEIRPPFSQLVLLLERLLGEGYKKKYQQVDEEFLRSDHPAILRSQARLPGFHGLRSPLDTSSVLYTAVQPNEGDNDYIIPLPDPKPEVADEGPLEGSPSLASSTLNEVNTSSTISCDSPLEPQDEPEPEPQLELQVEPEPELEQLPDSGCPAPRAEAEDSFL
T1 sequence (P10721 with tags, fused parts or gaps): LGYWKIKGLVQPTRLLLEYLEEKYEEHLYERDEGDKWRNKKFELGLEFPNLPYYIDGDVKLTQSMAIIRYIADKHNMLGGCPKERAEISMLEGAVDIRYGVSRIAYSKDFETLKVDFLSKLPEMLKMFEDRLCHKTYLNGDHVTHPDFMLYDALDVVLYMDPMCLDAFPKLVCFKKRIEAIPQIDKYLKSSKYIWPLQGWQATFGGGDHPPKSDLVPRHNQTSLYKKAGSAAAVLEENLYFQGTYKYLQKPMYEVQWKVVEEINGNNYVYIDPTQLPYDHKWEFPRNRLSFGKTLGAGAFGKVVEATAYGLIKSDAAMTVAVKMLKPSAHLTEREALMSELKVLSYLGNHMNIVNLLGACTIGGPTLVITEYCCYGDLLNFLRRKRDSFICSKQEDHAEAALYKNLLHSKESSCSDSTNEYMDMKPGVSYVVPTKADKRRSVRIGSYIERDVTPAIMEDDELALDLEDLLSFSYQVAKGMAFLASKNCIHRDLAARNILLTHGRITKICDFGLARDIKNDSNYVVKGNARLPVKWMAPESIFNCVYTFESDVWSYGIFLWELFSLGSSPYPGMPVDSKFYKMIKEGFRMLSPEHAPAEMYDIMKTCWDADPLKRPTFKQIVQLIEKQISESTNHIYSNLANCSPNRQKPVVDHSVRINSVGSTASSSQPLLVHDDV

Cc1nc(-c2cnc(NC(C)C)n(C)c2=O)ccc1Oc1ccnc(-c2cnn(C)c2)c1 [Example 10, 2-(isopropylamino)-3-methyl-5-(6-methyl-5-((2-(1-methyl-1H-pyrazol-4-yl)pyridin-4-yl)oxy)pyridin-2-yl)pyrimidin-4(3H)-one]
IC50 [1]: 100 to 1000 nM
IC50 [2]: > 1000 nM
IC50 (osteoclast precursors): < 10 nM
lesion score (PC-3 M-luc cells): 2
